According to PMC7588595, “Small-molecule active pharmaceutical ingredients of approved cancer therapeutics inhibit human aspartate/asparagine-β-hydroxylase” (Bioorganic & Medicinal Chemistry, 2020):
Structures can show the parent of a compound that is named as a salt. Where two headings read alike, the source gives them in different places.

Molecular target: T1, human AspH (His6-AspH315–758) (Homo sapiens, UniProt Q12797)
T1 construct: N-Terminally His6-tagged human AspH315–758 (His6-AspH315–758) was produced in Escherichia coli BL21 (DE3) cells; made in house; host or cells: Escherichia coli BL21 (DE3), pET-28a(+) vector
T1 sequence (Q12797 315-758): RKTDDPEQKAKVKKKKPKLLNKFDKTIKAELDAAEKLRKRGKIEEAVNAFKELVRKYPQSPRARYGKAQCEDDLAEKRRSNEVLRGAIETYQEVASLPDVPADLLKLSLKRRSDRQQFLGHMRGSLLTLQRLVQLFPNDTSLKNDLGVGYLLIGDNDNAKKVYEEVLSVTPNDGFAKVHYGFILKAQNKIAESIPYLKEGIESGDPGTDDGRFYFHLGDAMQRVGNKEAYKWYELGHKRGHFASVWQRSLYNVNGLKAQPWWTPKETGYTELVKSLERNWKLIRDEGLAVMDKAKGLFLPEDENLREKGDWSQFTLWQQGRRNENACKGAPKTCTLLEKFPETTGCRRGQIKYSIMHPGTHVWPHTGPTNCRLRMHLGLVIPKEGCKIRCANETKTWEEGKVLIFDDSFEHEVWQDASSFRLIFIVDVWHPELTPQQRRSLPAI
Assay: SPE-MS AspH inhibition assay (hFX-CP101-119 substrate hydroxylation)
Assay type: biochemical
Settings: for Plate 1 (% inhibition) / Plate 1 (% conversion) / Plate 1-duplicate (% inhibition) / Plate 1-duplicate (% conversion): AspH-inhibitor screening; for Plate 1 (% inhibition): 384-well Plate 1; for Plate 1 (% conversion): 384-well Plate 1, substrate conversion; for Plate 1-duplicate (% conversion): substrate conversion

SMILES | IC50 (50 nM His6-AspH315–758, 1 μM hFX-CP101–119, 100 μM LAA, 3 μM 2OG, 2 μM FAS, 50 mM HEPES pH 7.5, 20 °C, read-out: IC50) [µM] | remaining activity at 20 µM (20 μM fixed inhibitor concentration) [%] | Hill coefficient of AspH inhibition curves (dose-response curves of SPE-MS AspH inhibition assay) | IC50 (read-out: IC50 at 10 μM substrate, 10 μM hFX-CP101–119 and 10 μM 2OG instead of 1 μM hFX-CP101–119 and 3 μM 2OG) [µM] | IC50 (read-out: IC50 at 20 μM Fe(II), 20 μM Fe(II) instead of 2 μM Fe(II)) [µM] | IC50 (read-out: IC50 at 200 μM 2OG, 200 μM 2OG instead of 3 μM 2OG) [µM] | Plate 1 (% inhibition) [%] | Plate 1 (% conversion) [%] | Plate 1-duplicate (% inhibition) [%] | Plate 1-duplicate (% conversion) [%]
COc1c/c(=C2\C=c3ccccc3=N2)[nH]/c1=C\c1[nH]c(C)cc1C.CS(=O)(=O)O [Obatoclax, reference compound] | 13.2 ± 3.1 | ~20 | < -2.0 | 9.44 ± 3.16 | 11.9 ± 0.8 | 16.4 ± 4.6 | – | – | – | –
O=C(c1cc(Cc2n[nH]c(=O)c3ccccc23)ccc1F)N1CCN(C(=O)C2CC2)CC1 [Olaparib] | – | – | – | – | – | – | 15.27 | 42.70 | 14.14 | 45.03
COC(=O)C[C@](O)(CCCC(C)(C)O)C(=O)O[C@@H]1C(OC)=C[C@]23CCCN2CCc2cc4c(cc2[C@H]13)OCO4 [Omacetaxine mepesuccinate] | – | – | – | – | – | – | -1.21 | 50.31 | 6.33 | 48.90
C=CC(=O)Nc1cc(Nc2nccc(-c3cn(C)c4ccccc34)n2)c(OC)cc1N(C)CCN(C)C [Osimertinib] | – | – | – | – | – | – | 34.01 | 34.05 | 33.73 | 35.31
O=C(O)C(=O)O.[NH-][C@@H]1CCCC[C@H]1[NH-].[Pt+2] [Oxaliplatin] | – | – | – | – | – | – | 8.19 | 45.97 | 11.28 | 46.45
C=CCc1cccc(/C=N/NC(=O)CN2CCN(Cc3ccccc3)CC2)c1O [PAC-1] | – | – | – | – | – | – | 3.72 | 48.03 | -0.37 | 52.23
C=CC(=O)N1CCC[C@@H](n2nc(-c3ccc(Oc4ccccc4)cc3)c3c(N)ncnc32)C1 [PCI-32765_Ibrutinib] | – | – | – | – | – | – | 0.65 | 49.45 | -9.59 | 56.80
CC(=O)c1c(C)c2cnc(Nc3ccc(N4CCNCC4)cn3)nc2n(C2CCCC2)c1=O [PD-0332991] | – | – | – | – | – | – | 1.12 | 49.23 | -1.13 | 52.60
Nc1nccc(-c2c(-c3ccc(F)cc3)ncn2C2CCCCC2)n1 [PF670462] | – | – | – | – | – | – | 40.03 | 31.27 | 29.89 | 37.22
Nc1ncnc2c1c(COc1cccc(Cl)c1)nn2C1CCOCC1 [PF4800567 hydrochloride] | – | – | – | – | – | – | -0.85 | 50.14 | 0.27 | 51.91
CN(c1ccccc1CNc1nc(Nc2ccc3c(c2)CC(=O)N3)ncc1C(F)(F)F)S(C)(=O)=O [PF 431396] | – | – | – | – | – | – | 1.90 | 48.87 | -4.64 | 54.34
Cn1cc(-c2[nH]c3cc(NC(=O)[C@H](N)C4CCCCC4)cc4c3c2C=NNC4=O)cn1 [PF 477736] | – | – | – | – | – | – | -54.30 | 74.83 | -54.03 | 78.84
O=C(Nc1cccnc1)N1CCC(Cc2cccc(Oc3ccc(C(F)(F)F)cn3)c2)CC1 [PF-3845] | – | – | – | – | – | – | 5.62 | 47.15 | -12.27 | 58.13
C[C@@H](Oc1cc(-c2cnn(C3CCNCC3)c2)cnc1N)c1c(Cl)ccc(F)c1Cl [PF-2341066 (Crizotinib)] | – | – | – | – | – | – | -4.19 | 51.68 | -4.98 | 54.51
COc1ccc(-c2cc3c(C)nc(N)nc3n([C@H]3CC[C@H](OCCO)CC3)c2=O)cn1 [PF-04691502] | – | – | – | – | – | – | -6.58 | 52.79 | -5.13 | 54.58
CCc1cncnc1N1CCN(Cc2nc3ccc(C(F)(F)F)cc3[nH]2)CC1 [PF-04708671] | – | – | – | – | – | – | -5.43 | 52.26 | -7.38 | 55.70
CO[C@@H](C(=O)N1Cc2[nH]nc(NC(=O)c3ccc(N4CCN(C)CC4)cc3)c2C1)c1ccccc1 [PHA-739358 (Danusertib)] | – | – | – | – | – | – | 4.40 | 47.72 | 1.12 | 51.48
Cc1ccc([N+](=O)[O-])cc1S(=O)(=O)N(C)/N=C/c1cnc2ccc(Br)cn12.Cl [PIK-75 HCl] | – | – | – | – | – | – | -11.59 | 55.10 | -0.06 | 52.07
CCCS(=O)(=O)Nc1ccc(F)c(C(=O)c2c[nH]c3ncc(-c4ccc(Cl)cc4)cc23)c1F [PLX4032_Vemurafenib] | – | – | – | – | – | – | 39.76 | 31.39 | 46.15 | 29.15

The remaining lines, values ahead:

IC50 (50 nM His6-AspH315–758, 1 μM hFX-CP101–119, 100 μM LAA, 3 μM 2OG, 2 μM FAS, 50 mM HEPES pH 7.5, 20 °C, read-out: IC50) [µM] | remaining activity at 20 µM (20 μM fixed inhibitor concentration) [%] | Hill coefficient of AspH inhibition curves (dose-response curves of SPE-MS AspH inhibition assay) | IC50 (read-out: IC50 at 10 μM substrate, 10 μM hFX-CP101–119 and 10 μM 2OG instead of 1 μM hFX-CP101–119 and 3 μM 2OG) [µM] | IC50 (read-out: IC50 at 20 μM Fe(II), 20 μM Fe(II) instead of 2 μM Fe(II)) [µM] | IC50 (read-out: IC50 at 200 μM 2OG, 200 μM 2OG instead of 3 μM 2OG) [µM] | Plate 1 (% inhibition) [%] | Plate 1 (% conversion) [%] | Plate 1-duplicate (% inhibition) [%] | Plate 1-duplicate (% conversion) [%] | SMILES
– | – | – | – | – | – | – | 7.13 | – | 6.90 | CO[C@@H]1[C@H](N(C)C(=O)c2ccccc2)C[C@H]2O[C@]1(C)n1c3ccccc3c3c4c(c5c6ccccc6n2c5c31)C(=O)NC4 [PKC412_Midostaurin]
– | – | – | – | – | – | 6.60 | 46.70 | -2.08 | 53.08 | CC(=O)O[C@H]1C(=O)[C@@]2(C)[C@H]([C@H](OC(=O)c3ccccc3)[C@]3(O)C[C@H](OC(=O)[C@H](O)[C@@H](NC(=O)c4ccccc4)c4ccccc4)C(C)=C1C3(C)C)[C@]1(OC(C)=O)CO[C@@H]1C[C@@H]2O [Paclitaxel]
– | – | – | – | – | – | 13.54 | 43.50 | 4.20 | 49.96 | CC(=O)c1c(C)c2cnc(Nc3ccc(N4CCNCC4)cn3)nc2n(C2CCCC2)c1=O [Palbociclib]
– | – | – | – | – | – | 44.02 | 29.42 | 37.62 | 33.38 | Cc1[nH]c2ccccc2c1CCNCc1ccc(/C=C/C(=O)NO)cc1 [Panobinostat]
– | – | – | – | – | – | -0.37 | 49.92 | -28.79 | 66.32 | Cc1ccc(Nc2nccc(N(C)c3ccc4c(C)n(C)nc4c3)n2)cc1S(N)(=O)=O.Cl [Pazopanib hydrochloride]
– | – | – | – | – | – | 4.18 | 47.82 | -21.51 | 62.71 | Cc1ccc(Nc2nccc(N(C)c3ccc4c(C)n(C)nc4c3)n2)cc1S(N)(=O)=O [Pazopanib]
– | – | – | – | – | – | 6.49 | 46.75 | 6.63 | 48.75 | Nc1nc2[nH]cc(CCc3ccc(C(=O)N[C@@H](CCC(=O)[O-])C(=O)[O-])cc3)c2c(=O)[nH]1.O.O.O.O.O.O.O.[Na+].[Na+] [Pemetrexed, Disodium salt, Heptahydrate]
– | – | – | – | – | – | 17.80 | 41.53 | 10.26 | 46.95 | Nc1nc2[nH]cc(CCc3ccc(C(=O)N[C@@H](CCC(=O)O)C(=O)O)cc3)c2c(=O)[nH]1 [Pemetrexed]
– | – | – | – | – | – | 10.69 | 44.81 | 8.07 | 48.04 | OC[C@H]1O[C@@H](n2cnc3c2NC=NC[C@H]3O)C[C@@H]1O [Pentostatin]
– | – | – | – | – | – | -1.17 | 50.29 | -2.15 | 53.11 | CCCCCCCCCCCCCCCCCCOP(=O)([O-])OC1CC[N+](C)(C)CC1 [Perifosine aq/PBS]
– | – | – | – | – | – | 3.20 | 48.27 | 17.17 | 43.53 | CC[C@@H]1C(=O)OC[C@@H]1Cc1cncn1C [Pilocarpine]
– | – | – | – | – | – | 11.08 | 44.63 | 4.27 | 49.93 | O=C(CCBr)N1CCN(C(=O)CCBr)CC1 [Pipobroman]
– | – | – | – | – | – | 9.96 | 45.15 | 5.23 | 49.45 | c1cc(CN2CCCNCCNCCCNCC2)ccc1CN1CCCNCCNCCCNCC1 [Plerixafor]
